Values of other authors, collected in patent publication US20220000855A1, “AN AURORA A KINASE INHIBITOR FOR USE IN THE TREATMENT OF NEUROBLASTOMA” (Eli Lilly and Company, priority 2018, published 2022).

Settings: background statement

SMILES | neutropenia and other toxic effects associated with use
COc1cc(Nc2ncc3c(n2)-c2ccc(Cl)cc2C(c2c(F)cccc2OC)=NC3)ccc1C(=O)O [alisertib] | unacceptably high levels of neutropenia and other toxic effects
Cc1cc(Nc2cc(N3CCN(C)CC3)nc(Sc3ccc(NC(=O)C4CC4)cc3)n2)[nH]n1 [tozasertib] | unacceptably high levels of neutropenia and other toxic effects
